One compound from patent US20230181633A1, “METHODS OF TREATING CANCER USING A COMBINATION OF TUMOR MEMBRANE VESICLES AND METFORMIN” (METACLIPSE THERAPEUTICS CORPORATION, priority 2019, published 2023) can be followed below.

The subject of assay [1] is oral squamous cell carcinoma MOC2 cells. The assay is described as follows: MOC2 head and neck cancer model, tumor growth. The conditions noted are these: MOC2-challenged mice, treatment from Day 3 (FIG. 9A, 9B). The assay is classed as in vivo, C57BL/6J mice.
Experimental: C57BL/6J mice were inoculated with 500,000 oral squamous cell carcinoma MOC2 cells s.c. in the hind flank. Tumors were palpable at day 3 post challenge. PBS, MET alone, TMV alone, or a combination of TMV + MET was employed at days 3, 8, 13, 18, and 25. Tumor growth was measured over time. […] Filled circle is PBS treatment group, filled square is MET alone treatment group, filled grey triangle is TMV alone treatment group, upside down triangle is MET + TMV treatment group. n=5 per group, two-way ANOVA with Tukey’s multiple comparison for statistical significance. *p<0.05, **p<0.01.
In the murine head and neck MOC2 cancer model, the TMV vaccine generated from MOC2 tumors was administered at Day 3, while MET was started at Day 3 and continued every other day until end point.
Assay [2] has as its system immune cell subtypes in blood. The assay is described as follows: Immune cell subtypes in blood of 4T1-challenged mice. It counts as in vivo, mouse. As to the method:
FIGS. 2(A-C) is a set of graphs showing percentages of T-cell subtypes in the blood of mice with 4T1 tumor. After 4T1 tumor challenge and treatment with water, TMV alone, MET alone, or TMV+MET, mouse blood samples were analyzed for percentage of CD3+ (FIG. 2A), CD4+ (FIG. 2B), and CD8+ (FIG. 2C) T-cells, in relation to CD45+ T cells. Filled circle is water treatment group, filled square is MET treatment group, filled grey triangle is TMV treatment group, upside down triangle is TMV + MET treatment group.
FIGS. 3(A-B) is a set of Fluorescence Activated Cell Sorting (FACS) plots showing presence of myeloid-derived suppressor cells (MDSCs) (FIG. 3A) and CD3+ cells (FIG. 3B) in the blood of 4T1 tumor-challenged mice.
FIG. 4 is a set of graphs showing amounts of MDSCs (top panel) and CD3+ T cells (bottom panel) in the blood of 4T1 tumor-challenged mice treated with water, TMV alone, MET alone, or TMV+MET. Filled circle is water treatment group, filled square is MET treatment group, filled grey triangle is TMV treatment group, upside down triangle is TMV + MET treatment group. **p<0.01.
The 4T1-challenged mice were further analyzed for immunological effects upon administration of TMV, MET, or both. Blood samples were obtained from mice, and samples were subjected to analysis to determine presence of immune cell subtypes.

The next assay has as its system 4T1 tumor cells. The assay is described as follows: Lung metastasis in 4T1-challenged mice. It counts as in vivo, mouse. As to the method: FIGS. 6(A-B) is a set of graphs showing the amount of 4T1 tumor cells (FIG. 6A) and metastatic clones (FIG. 6B) obtained in the lungs of 4T1 tumor-challenged mice treated with water, TMV alone, MET alone, or TMV + MET. **p<0.01, ***p<0.001,
4T1-challenged mice were also analyzed for their metastatic potential. Upon sacrificing the mice, the lungs were analyzed for tumor colony forming units […] and overall total tumor cells (FIG. 6B).

Another assay relates to MOC2 cells. Briefly: MOC2 spontaneous lung metastasis. The assay is classed as in vivo, C57BL/6J mice. The conditions noted are these: lungs harvested after 25 days of tumor growth (FIG. 10).
In a further assay the test system is SCCVII cells. The assay is described as follows: SCCVII squamous cell tumor challenge, tumor growth over time. It counts as in vivo, C3H/Hej mice. As to the method: FIGS. 1(A-C) is a set of graphs showing tumor growth over time. […] Tumor growth was measured over time. […] Tumors were palpable at day 3, which is when treatment with PBS, MET alone, TMV alone, or TMV + MET was initiated. The subsequent treatments were employed at days […]. […] Tumors were palpable at day 3, treatment of PBS control, MET alone, TMV alone, or TMV + MET was applied at days 10, 17, 24, 31, and 40. Tumor growth was measured over time. n=5 per group, two-way ANOVA with Tukey’s multiple comparison for statistical significance. For FIGS. 1(A-C), filled circle is PBS treatment group, filled square is MET alone treatment group, filled grey triangle is TMV alone treatment group, upside down triangle is MET + TMV treatment group. *p<0.05, **p<0.01, ***p<0.001.
In the same model (SCCVII), the TMV and MET treatment were delayed and given at Day 10 when the tumors were established (about 50 mm^2) (FIG. 1C).

The test system of assay [3] is 4T1 mouse breast cancer cells. The assay is described as follows: Survival after surgical resection of 4T1 tumors. It counts as in vivo. As to the method:
FIG. 8 is a graph showing survival of mice treated with PBS, TMV alone, MET alone, or TMV+MET after surgical resection of tumors. Mice were challenged 10 days before surgery with 4T1 tumor cells. After tumor establishment, tumors were resected on Day 0. Beginning on Day 5, 50 mg/kg metformin was administered. On Days 5 and 12, 4T1-derived TMVs were administered. […] Solid line is PBS treatment group, dashed line is MET alone, dotted line is TMV alone, dash and dot line is TMV and MET treatment.
Mice were divided into four groups of five mice per group, wherein each group was to be treated with either a PBS control, metformin (MET) alone, 4T1-derived TMV (as described in Example 1) or TMV+MET. Each mouse was challenged with 4T1 mouse breast cancer cells by subcutaneous injection and tumors were later surgically resected (Day 0). On Day 5, mice in the MET and TMV+MET groups were administered 50 mg/kg metformin in drinking water daily until Day 20. On Days 5 and 12, mice in the TMV and TMV+MET groups were administered a dose of TMVs formed from 4T1 cells. Mice were then analyzed for survival (FIG. 8).

Each structure is given as a SMILES string.

In the case of `CN(C)C(=N)NC(=N)N` [MET, 3-(diaminomethylidene)-1,1-dimethylguanidine], the “MOC2 tumor growth / tumor area” value in assay [1] was “no reduction in tumor growth”. Besides, the “amount of myeloid derived suppressor cells (MDSC) in blood samples” value in assay [2] (4T1-challenged mice (FIG. 3A, FIG. 4 upper panel)) was “decreased”. In assay [2] (4T1-challenged mice, by week 2, vs PBS control (FIG. 2A)), the “amount of CD3+ T cells in the blood” value is recorded as “increased”. In addition, the “amount of CD4+ T cells in the blood” value in assay [2] (4T1-challenged mice, by week 2, vs PBS control (FIG. 2B)) was “increased”. Besides, the “amount of CD8+ T cells in the blood” value in assay [2] (4T1-challenged mice, by week 2, vs PBS control (FIG. 2C)) is “increased”. For the same compound, the “lung metastasis: tumor colony forming units” value in the assay with 4T1 tumor cells (lungs of 4T1-challenged mice at sacrifice (FIG. 6A)) is “not MET alone significantly reduced”. Also, the “lung metastasis: overall total tumor cells” value in the assay on 4T1 tumor cells (lungs of 4T1-challenged mice at sacrifice (FIG. 6B)) is given as “not MET alone significantly reduced”. The “number of metastatic MOC2 cells per lung” value in the assay on MOC2 cells was “did not have a significant reduction”. Moreover, in the assay with SCCVII cells (SCCVII, treatment delayed to Day 10, tumors about 50 mm^2 (FIG. 1C)), the “tumor growth, established tumors” value is recorded as “did not have a significant decrease in growth”. Besides, the “tumor size (in words)” value in the assay on SCCVII cells (SCCVII-challenged mice, treatment from day 3 (FIG. 1B)) was “reduced tumor size”. Also, the “mouse survival post-surgery (in words)” value in assay [3] (4T1 tumors resected Day 0 (FIG. 8)) is “increased mouse survival”. Moreover, in assay [3] (at day 60 after resection of 4T1 tumors, 50 mg/kg metformin from Day 5 (FIG. 8)), the survival was found to be 0%.
